Laboratory results from PubChem BioAssay AID602132 (Sanford-Burnham Center for Chemical Genomics, 2011).
Active and inactive are the calls of the source. The rule behind the calls is not given here.

Biological target: glucose-6-phosphate dehydrogenase-6-phosphogluconolactonase [Plasmodium falciparum 3D7]
Assay: inhibition of P. falciparum G6PD activity – biochemical, direct NADPH end-point detection, set 2, orthogonal assay for PfG6PD antimalarial inhibitor project, SAR follow-up (AID 602132)
Conditions: recombinant PfG6PD

| IC50 | Compound |
| --- | --- |
| > 80 µM (inactive) | CCN1CCCC1CNC(=O)c1ccc2c(c1)NC(=O)/C(=C/c1ccc(F)cc1)S2 (stereo unspecified) |
| 25.4 µM | O=C(NCCN1CCCCC1)c1ccc2c(c1)NC(=O)c1ccccc1S2 |
| > 80 µM (inactive) | CN(C)c1ccccc1CNC(=O)c1ccc2c(c1)NC(=O)/C(=C/c1ccccc1F)S2 |
| > 80 µM (inactive) | O=C1Nc2cc(C(=O)NCC3CCCN3)ccc2S/C1=C\c1ccccc1F (stereo unspecified) |
| 64.8 µM | CCN1CCC[C@H]1CNC(=O)c1ccc2c(c1)NC(=O)c1ccccc1S2 |
| > 80 µM (inactive) | NCCNC(=O)c1ccc2c(c1)NC(=O)c1ccccc1S2 |
| > 80 µM (inactive) | NC1CCN(C(=O)c2ccc3c(c2)NC(=O)c2ccccc2S3)C1 (stereo unspecified) |
| > 80 µM (inactive) | CCN1CCCC1CNC(=O)c1ccc2c(c1)NC(=O)/C(=C/c1cccc(F)c1)S2 (stereo unspecified) |
| 25 µM | CCC(C)N(CCNC(=O)c1ccc2c(c1)NC(=O)c1ccccc1S2)C1CCCCC1 (stereo unspecified) |
| > 80 µM (inactive) | CCCN1CCCC1CNC(=O)c1ccc2c(c1)NC(=O)/C(=C/c1ccccc1F)S2 (stereo unspecified) |
| > 80 µM (inactive) | O=C(NCCN1CCOCC1)c1ccc2c(c1)NC(=O)c1ccccc1S2 |
| > 80 µM (inactive) | O=C(NCCNC1CCCCC1)c1ccc2c(c1)NC(=O)c1ccccc1S2 |
| > 80 µM (inactive) | CCN1CCCC1CNC(=O)c1ccc2c(c1)NC(=O)/C(=C/c1c(F)cccc1F)S2 (stereo unspecified) |
| > 80 µM (inactive) | NC1CCN(C(=O)c2ccc3c(c2)NC(=O)/C(=C/c2ccccc2F)S3)C1 (stereo unspecified) |
| > 80 µM (inactive) | CCC(C)N1CCCC1CNC(=O)c1ccc2c(c1)NC(=O)c1ccccc1S2 (stereo unspecified) |
| > 80 µM (inactive) | CCN1CCCC1CNC(=O)c1ccc2c(c1)NC(=O)/C(=C/c1ccc3ccccc3c1)S2 (stereo unspecified) |
| 6.69 µM | CCN1CCC[C@@H]1CNC(=O)c1ccc2c(c1)NC(=O)c1ccccc1S2 |
| > 80 µM (inactive) | CCN(CC)CCCC(C)Nc1ccnc2cc(Cl)ccc12 (stereo unspecified) |
| > 80 µM (inactive) | CC(C)(C)OC(=O)N1CCCC1CNC(=O)c1ccc2c(c1)NC(=O)/C(=C/c1ccccc1F)S2 (stereo unspecified) |
| > 80 µM (inactive) | CCN1CCCC1CNC(=O)c1ccc2c(c1)NC(=O)C(Cc1ccccc1F)S2 (stereo unspecified) |
| > 80 µM (inactive) | CCN1CCCC1CNC(=O)c1ccc2c(c1)NC(=O)/C(=C/c1cccc(F)c1F)S2 (stereo unspecified) |
